From US6350775B1, “3-phenyl-furan-(5H)-2-one and dihydrofuran-2-one derivatives as antibacterial agents” (priority 1996, dated 2002)
In brackets after ≈: the same amount, converted by molar mass.

Experiments:
Type in all cases: cell-based
Bacillus subtilis = assay: MIC by agar-dilution, Bacillus subtilis; settings: 10^4 CFU/spot
Description: (§1) The following results were obtained on a standard in vitro test system. The activity is described in terms of the minimum inhibitory concentration (MIC) determined by the agar-dilution technique with an inoculum size of 10^4 CFU/spot. Staphylococci were tested on agar, using an inoculum of 10^4 CFU/spot and an incubation temperature of 37° C. for 24 hours—standard test conditions for the expression of methicillin resistance.

[1] = system: Streptococcus pyogenes C203; assay: MIC by agar-dilution, Streptococcus pyogenes C203; settings: agar with 5% defibrinated horse blood, 10^4 CFU/spot, 37° C., 5% carbon dioxide, 48 hours
Description: as §1
(§2) Streptococci and enterococci were tested on agar supplemented with 5% defibrinated horse blood, an inoculum of 10^4 CFU/spot and an incubation temperature of 37° C. in an atmosphere of 5% carbon dioxide for 48 hours—blood is required for the growth of some of the test organisms.

[2] = system: Coagulase Negative Staphylococcis MS; assay: MIC by agar-dilution, Coagulase Negative Staphylococci MS; settings: 10^4 CFU/spot, 37° C., 24 hours
Description: as §1

[3] = system: Staphylococcus aureus Novb. Res (Novobiocin resistant); assay: MIC by agar-dilution, Staphylococcus aureus Novb. Res; settings: 10^4 CFU/spot, 37° C., 24 hours
Description: as §1

[4] = system: Coagulase Negative Staphylococcis MR (methicillin resistant); assay: MIC by agar-dilution, Coagulase Negative Staphylococci MR; settings: 10^4 CFU/spot, 37° C., 24 hours
Description: as §1

[5] = system: Staphylococcus aureus MRQR (methicillin resistant quinolone resistant); assay: MIC by agar-dilution, Staphylococcus aureus MRQR; settings: 10^4 CFU/spot, 37° C., 24 hours
Description: as §1

[6] = system: Staphylococcus aureus Oxford; assay: MIC by agar-dilution, Staphylococcus aureus Oxford; settings: 10^4 CFU/spot, 37° C., 24 hours
Description: as §1

Enterococcus faecalis = assay: MIC by agar-dilution, Enterococcus faecalis; settings: agar with 5% defibrinated horse blood, 10^4 CFU/spot, 37° C., 5% carbon dioxide, 48 hours
Description: as §1, §2

[7] = system: Staphylococcus aureus MRQS (methicillin resistant quinolone sensitive); assay: MIC by agar-dilution, Staphylococcus aureus MRQS; settings: 10^4 CFU/spot, 37° C., 24 hours
Description: as §1

With `CC(=O)NC[C@H]1CC(c2ccc(C3=CCN(C(=O)CO)CC3)cc2)C(=O)O1` (stereo partly drawn) [Example 5, 5R,3RS-5-Acetamidomethyl-3-(4-[1-hydroxyacetyl-1,2,5,6-tetrahydropyrid-4-yl]phenyl)dihydrofuran-2(3H)-one] the MIC (Bacillus subtilis) was 4.0 µg/mL (≈ 10.7 µM), the MIC [1] was 8.0 µg/mL (≈ 21.5 µM) and the MIC [2] was 2.0 µg/mL (≈ 5.37 µM). The MIC [3] was 4.0 µg/mL (≈ 10.7 µM), the MIC [4] was 4.0 µg/mL (≈ 10.7 µM) and the MIC [5] was 8.0 µg/mL (≈ 21.5 µM). For the same molecule, the MIC [6] was 4.0 µg/mL (≈ 10.7 µM), the MIC (Enterococcus faecalis) was 8.0 µg/mL (≈ 21.5 µM) and the MIC [7] was 4.0 µg/mL (≈ 10.7 µM).
